Results as given in patent EP0299528A1, “Doxorubicin hydrochloride nonaqueous solution” (Bristol-Myers Squibb Company, priority 1987, dated 1989).
Where a name gives a salt, the structure may show the parent alone. Read-outs that look alike come from different tables or passages of the source. Each block holds one molecule with its values, some of them ahead of it.

What was measured:
[1] = Experimental: The pH is measured on solutions diluted to 1 mg/ml with water or 70% water/30% acetonitrile (v/v). […] An amount of citric acid is used which will provide a solution pH in the range of about 3-5, preferably 3-4.5.
We have tested a number of antioxidants including α-tocopherol, tert-butylhydroquinone (TBHQ), sodium formaldehyde bisulfite, butylated hydroxy anisole (BHA), butylated hydroxy toluene (BHT), sodium bisulfite and propyl gallate. […] Generally an amount of α-tocopherol, tert-butylhydroquinone or sodium formaldehyde bisulfite is employed in the range of about 0.1-2 mg/ml. The preferred concentration of antioxidant is about 0.5-2 mg/ml with about 2 mg/ml being most preferred.
Glass vials may conveniently be used as the container.

[2] = Solubility of doxorubicin HCl in nonaqueous solvents; assay type: physicochemical; conditions: organic solvent or mixture
[3] = cited from earlier work; for reconstituted solution remains stable: in 0.9% NaCl solution, Ketchum, et al. 1981
[4] = cited from earlier work

SMILES: O=C(O)CC(O)(CC(=O)O)C(=O)O [citric acid]
stability of the solutions with the acid used for pH control ([1]; acid used to reach a pH range of about 3-5): optimum stability

SMILES: COc1cccc2c1C(=O)c1c(O)c3c(c(O)c1C2=O)C[C@@](O)(C(=O)CO)C[C@@H]3O[C@H]1C[C@H](N)[C@H](O)[C@H](C)O1 [doxorubicin HCl, doxorubicin hydrochloride]
solubility ([2]; glycerol formal, pyrrolidinones, glycerol formal, 2-pyrrolidinone and 1-methyl-2-pyrrolidinone, read-out: concentration of solutions produced): ≥ 5000 µg/mL | solubility ([2]; glycols with 5-10% water, propylene glycol, 1,2-dihydroxybutane, 1,3-dihydroxypropane with addition of 5-10% (v/v) water, read-out: solubility): ~20000 µg/mL | solubility ([2]; nonaqueous solvents, same three solvents after short-term (0.5-1 hour) warming (60-80°C) with vigorous stirring, read-out: solubility): ~10000 µg/mL | solubility ([2]; nonaqueous solvents, with heating, polyethylene glycols, ethanol, benzyl alcohol, dimethylisosorbide, ethyl lactate, Solketol, Cremophors, Pluronics, read-out: solubility): < 5000 µg/mL | solubility ([2]; propylene glycol, 1,2-dihydroxybutane, 1,3-dihydroxypropane, room temperature, in propylene glycol, 1,2-dihydroxybutane and 1,3-dihydroxypropane, read-out: solubility): < 5000 µg/mL | chemical stability of solutions ([1]; glycerol formal, 2-pyrrolidinone and 1-methyl-2-pyrrolidinone): chemically unstable | potency loss ([1]; short-term (0.5-1 hour) warming (60-80°C) in propylene glycol, 1,2-dihydroxybutane or 1,3-dihydroxypropane): no potency loss | physical stability of the solution on storage ([1]; stored at 4°C to -20°C, seeding with crystalline doxorubicin HCl does not affect crystallization): remains in solution | reconstituted solution remains stable ([3]; 5°C): seven | reconstituted solution remains stable ([3]; room temperature): seven | reconstituted solutions stable (≦10% potency loss) ([3]; refrigerated at 4°C, Hoffman, et al. 1979): up to six | pH of maximum stability ([4]; Tris or phosphate buffers using HCl to adjust pH, Janssen, et al. 1985): 4 | pH of optimum stability ([4]; reconstitution solvent 5% Dextrose Injection, USP, Poochikian, et al. 1981): ~4.5

SMILES: Cc1c(C)c2c(c(C)c1O)CCC(C)(CCCC(C)CCCC(C)CCCC(C)C)O2 (stereo not drawn) [α-tocopherol]
stability of the solutions with the antioxidant [1]: resulted in the desired stability

More lines, now with the values ahead:

effect of additive on stability of the solutions [1]: did not improve stability
SMILES: CCCCCCCC/C=C\CCCCCCCC(=O)OCCOCC(OCCO)C1OCC(OCCO)C1OCCO (stereo not drawn) [Tween-80]

stability of the solutions with the antioxidant [1]: resulted in the desired stability
SMILES: O=S(=O)(O)CO [sodium formaldehyde bisulfite]

stability of the solutions with the antioxidant ([1]; elevated temperatures as well as room temperature (25°C) or below): resulted in the desired stability
SMILES: CC(C)(C)c1cc(O)ccc1O [tert-butylhydroquinone]
